In PubChem BioAssay AID1963846 (Molecular Pharmacology Branch, DTP, NCI, 2024):

System: 454973-116-R2-J3-PDC complex spheroid viability
Experiment: Anticancer human tumor 454973-116-R2-J3-PDC patient-derived pancreatic carcinoma cell line growth inhibition [POLQ]
Conditions: for IC50: curve of first compound; for viability, T/C: stronger effect = lower value
How it was run: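 Complex spheroid viability model combining PDC tumour cells with endothelial (HUVEC) and MSC stromal cells. Novobiocin, ART-558 or RP6685 were tested singly and in combination with standard and investigational anticancer drugs. Each was titrated in half-log steps from near clinical Cmax, or from 10 microM where Cmax was unknown.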

[1] = second compound 0.0316 µM, first compound 0.00316 µM
[2] = second compound 0.0316 µM, first compound 0.01 µM
[3] = second compound 0.0316 µM, first compound 0.0316 µM
[4] = second compound 0.0316 µM, first compound 0.1 µM
[5] = second compound 0.1 µM, first compound 0.00316 µM
[6] = second compound 0.1 µM, first compound 0.01 µM
[7] = second compound 0.1 µM, first compound 0.0316 µM
[8] = second compound 0.1 µM, first compound 0.1 µM
[9] = second compound 0.316 µM, first compound 0.00316 µM
[10] = second compound 0.316 µM, first compound 0.01 µM
[11] = second compound 0.316 µM, first compound 0.0316 µM
[12] = second compound 0.316 µM, first compound 0.1 µM
[13] = second compound 1 µM, first compound 0.00316 µM
[14] = second compound 1 µM, first compound 0.01 µM
[15] = second compound 1 µM, first compound 0.0316 µM
[16] = second compound 1 µM, first compound 0.1 µM
[17] = second compound 3.16 µM, first compound 0.00316 µM
[18] = second compound 3.16 µM, first compound 0.01 µM
[19] = second compound 3.16 µM, first compound 0.0316 µM
[20] = second compound 3.16 µM, first compound 0.1 µM
[21] = second compound 10 µM, first compound 0.00316 µM
[22] = second compound 10 µM, first compound 0.01 µM
[23] = second compound 10 µM, first compound 0.0316 µM
[24] = second compound 10 µM, first compound 0.1 µM
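Further: spheroids exposed to drugs for seven days before measurement.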
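Wherever viability, T/C is given: percent viability relative to DMSO vehicle control wells taken as 100%.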

COc1cccc(OCCCN)c1-c1cc(Nc2cnc(C#N)cn2)n[nH]1 + Cc1cccc(N(C)C(=O)C2C(O)CCN2c2nc(C)cc(C(F)(F)F)c2C#N)c1
IC50 (second compound 0.0316 µM): 17.8 nM | IC50 (second compound 0.1 µM): 16 nM | IC50 (second compound 0.316 µM): 16 nM | IC50 (second compound 1 µM): 13.4 nM | IC50 (second compound 3.16 µM): 13.2 nM | IC50 (second compound 10 µM): 13.6 nM | viability, T/C [1]: 109% | viability, T/C [2]: 78.1% | viability, T/C [3]: 21.9% | viability, T/C [4]: 7.22% | viability, T/C (second compound 0.0316 µM, first compound 0.316 µM): 5.75% | viability, T/C (second compound 0.0316 µM, first compound 1 µM): 4.08% | viability, T/C [5]: 95% | viability, T/C [6]: 75.2% | viability, T/C [7]: 13.4% | viability, T/C [8]: 7.01% | viability, T/C (second compound 0.1 µM, first compound 0.316 µM): 6.2% | viability, T/C (second compound 0.1 µM, first compound 1 µM): 4.45% | viability, T/C [9]: 102% | viability, T/C [10]: 77.6% | viability, T/C [11]: 10% | viability, T/C [12]: 6.6% | viability, T/C (second compound 0.316 µM, first compound 0.316 µM): 5.64% | viability, T/C (second compound 0.316 µM, first compound 1 µM): 5.58% | viability, T/C [13]: 104% | viability, T/C [14]: 64.2% | viability, T/C [15]: 8.06% | viability, T/C [16]: 5.29% | viability, T/C (second compound 1 µM, first compound 0.316 µM): 5.1% | viability, T/C (second compound 1 µM, first compound 1 µM): 4.45% | viability, T/C [17]: 112% | viability, T/C [18]: 63% | viability, T/C [19]: 9.04% | viability, T/C [20]: 6.82% | viability, T/C (second compound 3.16 µM, first compound 0.316 µM): 5.92% | viability, T/C (second compound 3.16 µM, first compound 1 µM): 6.01% | viability, T/C [21]: 98.6% | viability, T/C [22]: 64.2% | viability, T/C [23]: 11.1% | viability, T/C [24]: 5.73% | viability, T/C (second compound 10 µM, first compound 0.316 µM): 6.26% | viability, T/C (second compound 10 µM, first compound 1 µM): 5.41%

Cn1ncnc1[C@H]1c2n[nH]c(=O)c3cc(F)cc(c23)N[C@@H]1c1ccc(F)cc1 + COC1C(OC(N)=O)C(O)C(Oc2ccc3c(O)c(NC(=O)c4ccc(O)c(CC=C(C)C)c4)c(=O)oc3c2C)OC1(C)C
IC50 (second compound 0.0316 µM): > 100 nM | IC50 (second compound 0.1 µM): > 100 nM | IC50 (second compound 0.316 µM): > 100 nM | IC50 (second compound 1 µM): > 100 nM | IC50 (second compound 3.16 µM): > 100 nM | IC50 (second compound 10 µM): > 100 nM | viability, T/C (second compound 0.0316 µM, first compound 0.000316 µM): 100% | viability, T/C (second compound 0.0316 µM, first compound 0.001 µM): 111% | viability, T/C [1]: 102% | viability, T/C [2]: 109% | viability, T/C [3]: 95.1% | viability, T/C [4]: 83.4% | viability, T/C (second compound 0.1 µM, first compound 0.000316 µM): 102% | viability, T/C (second compound 0.1 µM, first compound 0.001 µM): 112% | viability, T/C [5]: 105% | viability, T/C [6]: 104% | viability, T/C [7]: 98.5% | viability, T/C [8]: 90.5% | viability, T/C (second compound 0.316 µM, first compound 0.000316 µM): 112% | viability, T/C (second compound 0.316 µM, first compound 0.001 µM): 114% | viability, T/C [9]: 105% | viability, T/C [10]: 100% | viability, T/C [11]: 93.5% | viability, T/C [12]: 83.3% | viability, T/C (second compound 1 µM, first compound 0.000316 µM): 109% | viability, T/C (second compound 1 µM, first compound 0.001 µM): 102% | viability, T/C [13]: 107% | viability, T/C [14]: 102% | viability, T/C [15]: 93.1% | viability, T/C [16]: 82.5% | viability, T/C (second compound 3.16 µM, first compound 0.000316 µM): 107% | viability, T/C (second compound 3.16 µM, first compound 0.001 µM): 111% | viability, T/C [17]: 104% | viability, T/C [18]: 100% | viability, T/C [19]: 104% | viability, T/C [20]: 88.9% | viability, T/C (second compound 10 µM, first compound 0.000316 µM): 101% | viability, T/C (second compound 10 µM, first compound 0.001 µM): 96% | viability, T/C [21]: 98.3% | viability, T/C [22]: 103% | viability, T/C [23]: 87.2% | viability, T/C [24]: 78.1%
